SMILES strings stand for the structures.

Sequence of USP1/UAF1 (O94782 whole entry): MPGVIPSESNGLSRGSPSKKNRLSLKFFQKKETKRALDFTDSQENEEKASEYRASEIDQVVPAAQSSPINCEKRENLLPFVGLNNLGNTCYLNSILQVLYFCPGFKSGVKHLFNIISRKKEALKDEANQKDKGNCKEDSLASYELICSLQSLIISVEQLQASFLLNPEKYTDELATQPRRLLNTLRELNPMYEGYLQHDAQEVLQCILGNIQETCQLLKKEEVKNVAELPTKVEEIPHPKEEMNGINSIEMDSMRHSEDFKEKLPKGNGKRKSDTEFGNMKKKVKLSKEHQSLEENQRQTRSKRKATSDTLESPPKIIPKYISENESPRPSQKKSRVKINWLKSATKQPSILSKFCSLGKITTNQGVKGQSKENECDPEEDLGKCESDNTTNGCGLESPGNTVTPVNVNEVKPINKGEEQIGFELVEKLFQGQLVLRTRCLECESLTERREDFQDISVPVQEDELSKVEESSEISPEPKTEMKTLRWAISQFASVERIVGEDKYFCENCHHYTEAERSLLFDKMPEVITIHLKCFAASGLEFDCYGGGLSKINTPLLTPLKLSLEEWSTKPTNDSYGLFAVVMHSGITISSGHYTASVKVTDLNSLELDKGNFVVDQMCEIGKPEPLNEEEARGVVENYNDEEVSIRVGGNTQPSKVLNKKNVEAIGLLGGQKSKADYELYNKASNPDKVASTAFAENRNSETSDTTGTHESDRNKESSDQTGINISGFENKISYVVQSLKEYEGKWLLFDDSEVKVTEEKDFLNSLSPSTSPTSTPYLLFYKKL
Sequence of USP1/UAF1 (Q8TAF3 whole entry partner): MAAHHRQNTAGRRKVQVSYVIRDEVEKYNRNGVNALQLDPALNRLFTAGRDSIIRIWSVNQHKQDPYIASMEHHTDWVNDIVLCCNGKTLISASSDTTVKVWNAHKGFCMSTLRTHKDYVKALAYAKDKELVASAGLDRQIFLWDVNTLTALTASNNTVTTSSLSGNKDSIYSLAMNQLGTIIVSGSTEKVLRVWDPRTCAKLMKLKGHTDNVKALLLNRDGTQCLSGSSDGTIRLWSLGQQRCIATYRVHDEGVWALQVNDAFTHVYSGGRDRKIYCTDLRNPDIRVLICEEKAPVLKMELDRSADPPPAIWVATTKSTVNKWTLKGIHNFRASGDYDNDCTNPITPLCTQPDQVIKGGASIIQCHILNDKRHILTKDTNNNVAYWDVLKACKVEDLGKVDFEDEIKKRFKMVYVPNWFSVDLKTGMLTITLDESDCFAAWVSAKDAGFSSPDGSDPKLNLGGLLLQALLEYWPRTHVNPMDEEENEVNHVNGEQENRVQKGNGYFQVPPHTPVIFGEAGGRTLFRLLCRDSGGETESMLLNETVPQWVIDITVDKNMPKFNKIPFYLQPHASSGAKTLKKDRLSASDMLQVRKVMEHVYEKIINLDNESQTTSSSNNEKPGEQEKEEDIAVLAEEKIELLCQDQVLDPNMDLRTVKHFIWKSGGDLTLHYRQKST

The test system of one assay is H596 cells. Kind of assay: Cytotoxicity assay in H596 cells (CCK-8 cell viability). Format: cell-based, human. Conditions: alone, 48 hr; read-out: EC50 of killing H596 cells. Here is the method: (§1) The H596 [human non-small cell lung cancer (NSCLC)] cell line was cultured in RFMI-1640 medium containing 10% fetal bovine serum (FBS) at 37° C. and 5% CO2. The HEK293T (human embryonic kidney 293T), U2OS (human osteosarcoma), and HCT116 (human colon cancer) cell lines were cultured in Dulbecco's modified Eagle's medium (DMEM) supplemented with 10% FBS at 37° C. and 5% CO2. All culture mediums contain 100 units/mL penicillin and 0.1 mg/mL streptomycin as antibiotics.
(§2) For cytotoxicity assays, 5×10^3 H596 cells were seeded in each well of the 96-well plate and grown for 24 hr in humidified incubator. […] In the combination assay, cisplatin was dissolved in saline solution and compound 81 was dissolved in DMSO. Equal volume of above solutions was added to each well and cells were incubated for 48 hr. Cells treated with equal volume of DMSO and saline were used as control and designated as 100% viability. The cell viability was measured by CCK-8 solution (Dojindo Molecular Technologies, Inc) as previously described (Chen, J., et al.).
On to `N.N.[Cl][Pt][Cl]` [cisplatin, reference compound], for which the EC50 (commonly the concentration giving half of the maximal effect) was determined as 486 nM.

For the next assay, the target named is USP1/UAF1 (Homo sapiens (Human), UniProt O94782). Kind of assay: qHTS assay for USP1/UAF1 activity (fluorometric, ubiquitin-rhodamine110). Conditions: USP1/UAF1 inhibition, Table 1 of Example 8. The assay is classed as biochemical. How it is done:
USP1/UAF1 activity was monitored in a fluorometric assay using ubiquitin-rhodamine110. Enzymatic reactions were conducted in an assay buffer (50 mM HEPES, pH 7.8, 0.5 mM EDTA, 100 mM NaCl, 1 mM TCEP, 0.1 mg/mL BSA, and 0.01% Tween-20) that contained 1 nM USP1/UAF1. […] The plates were incubated for 15 min to attain equilibrium, and then the enzymatic reaction was initiated by dispensing 1 μL of Ub-Rho solution (150 nM final concentration). The plates were directly transferred to a ViewLux high-throughput CCD imager (PerkinElmer), where kinetic measurements of rhodamine fluorescence were acquired using a 480 nm excitation/540 nm emission filter set. […] All screening operations were performed on a fully integrated robotic system (Kalypsys Inc., San Diego, Calif.) as described elsewhere. Plates containing DMSO only were included approximately every 50 plates throughout the screen to monitor any systematic trend in the assay signal associated with reagent dispenser variation or decrease in enzyme specific activity. PubChem AID: 651605.
(In qHTS, concentration-response curves come from the screen itself.)
As to `FC(F)(F)c1ccccc1-c1ncc2c(NCc3ccc(-c4cccc(Cl)c4)cc3)cccc2n1` [Compound 18], half-maximal inhibition (IC50) was put at 1700 nM.

For the molecule `FC(F)(F)c1ccccc1-c1ncc2c(NCc3ccc(-c4ccncc4)cc3)cccc2n1` [Compound 19], the IC50 (commonly the concentration that gives 50% inhibition) is 480 nM. `FC(F)(F)c1ccccc1-c1ncc2c(NCC#Cc3cccnc3)cccc2n1` [Compound 15] displayed an IC50 of 7600 nM.

`FC(F)(F)c1ccccc1-c1ncc2c(NCc3ccc(-c4ccc(Cl)c(Cl)c4)cc3)cccc2n1` [Compound 16]: the IC50 stood at 1400 nM.

For `Fc1ccc(CNc2cccc3nc(-c4ccccc4C(F)(F)F)ncc23)cc1` [Compound 9], the IC50 was 2400 nM. The molecule `FC(F)(F)c1ccccc1-c1ncc2c(NCc3ccc(C4CCCCC4)cc3)cccc2n1` [Compound 25] returned an IC50 of 5800 nM. Still for that read-out and setting: the value for `FC(F)(F)c1cc(-c2ccc(CNc3cccc4nc(-c5ccccc5C(F)(F)F)ncc34)cc2)ccc1Cl` [Compound 22] was 2200 nM; that for `FC(F)(F)c1ccccc1-c1ncc2c(NCc3ccc(N4CCOCC4)cc3)cccc2n1` [Compound 23] was 7600 nM; that for `FC(F)(F)c1ccccc1-c1ncc2c(NCc3ccc(Cl)cc3)cccc2n1` [Compound 10] was 3000 nM.

`FC(F)(F)c1ccccc1-c1ncc2c(NCc3ccc(-c4ccc(Cl)cc4)cc3)cccc2n1` [Compound 17] came in with a half-maximal inhibitory concentration (IC50) of 2200 nM.

Regarding `FC(F)(F)c1ccccc1-c1ncc2c(NCc3ccc(-c4cccnc4)cc3)cccc2n1` [Compound 20], the 50% inhibitory concentration (IC50) is 610 nM. Same read-out and setting: to `FC(F)(F)c1ccccc1-c1ncc2c(NCc3ccc(-c4ccccc4)cc3)cccc2n1` [Compound 6] belongs 3000 nM; to `FC(F)(F)c1ccccc1-c1ncc2c(NCc3ccc(Cl)c(Cl)c3)cccc2n1` [Compound 12], 11000 nM. On the same count and under the same terms, to `FC(F)(F)c1cc(-c2ccc(CNc3cccc4nc(-c5ccccc5C(F)(F)F)ncc34)cc2)ccn1` [Compound 24] belongs 4300 nM; to `FC(F)(F)c1ccccc1-c1ncc2c(NCc3ccc(-c4cccnc4)cc3)cccc2n1` [Compound 21], 1900 nM; to `N#Cc1ccc(CNc2cccc3nc(-c4ccccc4C(F)(F)F)ncc23)cc1` [Compound 14], 3400 nM. Regarding `FC(F)(F)c1ccc(CNc2cccc3nc(-c4ccccc4C(F)(F)F)ncc23)cc1` [Compound 11], the IC50 worked out at 5400 nM. `FC(F)(F)c1ccccc1-c1ncc2c(NCc3ccccc3)cccc2n1` [Compound 5]: 2400 nM corresponded to half-maximal inhibition (IC50). As to `FC(F)(F)c1ccccc1-c1ncc2c(NCc3ccc4c(c3)OCO4)cccc2n1` [Compound 7], it took 5400 nM to reach half-maximal inhibition (IC50). Same read-out and setting: the value for `Cc1ccc(CNc2cccc3nc(-c4ccccc4C(F)(F)F)ncc23)s1` [Compound 13] was 4300 nM; that for `FC(F)(F)c1ccccc1-c1ncc2c(NCc3cccs3)cccc2n1` [Compound 1] was 7900 nM. The same measure, in the same setting: the value for `COc1ccc(CNc2cccc3nc(-c4ccccc4C(F)(F)F)ncc23)cc1` [Compound 8] was 3000 nM.

The assay is the same for the next values; noted with them: USP1/UAF1 inhibition, Table 3.
As for `CC(C)c1ccccc1-c1ncc(N(C)C)c(NCc2ccc(-c3ccccc3)cc2)n1` [Compound 63], it took 150 nM to reach half-maximal inhibition (IC50). The same measure, in the same setting: to `Cc1cc(NCc2ccc(-c3ccccc3)cc2)nc(-c2ccccc2C(C)C)n1` [Compound 65] belongs 480 nM; to `Cc1nc(-c2ccccc2C(C)C)nc(NCc2ccc(-c3ccccc3)cc2)c1C` [Compound 66], 140 nM. The same measure, in the same setting: the value for `CSc1cnc(-c2ccccc2C(C)C)nc1NCc1ccc(-c2ccccc2)cc1` [Compound 64] was 86 nM; that for `CC(C)c1ccccc1-c1ncc(N)c(NCc2ccc(-c3ccccc3)cc2)n1` [Compound 62] was 270 nM.

As for `CC(C)c1ccccc1-c1nc(NCc2ccc(-c3ccccc3)cc2)c2cccn2n1` [Compound 54], the IC50 was 220 nM. The same measure, in the same setting: the value for `CC(C)c1ccccc1-c1ncc(F)c(NCc2ccc(-c3ccccc3)cc2)n1` [Compound 61] was 61 nM; that for `CC(C)c1ccccc1-c1nc(NCc2ccc(-c3ccccc3)cc2)c2sccc2n1` [Compound 50] was 120 nM; that for `CC(C)c1ccccc1-c1nc2c(c(NCc3ccc(-c4ccccc4)cc3)n1)CCC2` [Compound 53] was 1500 nM. `CCc1cnc(-c2ccccc2C(C)C)nc1NCc1ccc(-c2ccccc2)cc1` [Compound 60] gave an IC50 of 43 nM. Same read-out and setting: the value for `CC(C)c1ccccc1C1=NC2CNCCC2C(NCc2ccc(-c3ccccc3)cc2)=N1` (centres unmarked) [Compound 55] was 480 nM; that for `CC(C)c1ccccc1C1=NC2CCCC2C(NCc2ccc(-c3ccccc3)cc2)=N1` (centres unmarked) [Compound 56] was 140 nM; that for `CC(C)c1ccccc1-c1nc(NCc2ccc(-c3ccccc3)cc2)c2nc[nH]c2n1` [Compound 52] was 2120 nM. Turning to `CC(C)c1ccccc1-c1nc(NCc2ccc(-c3ccccc3)cc2)c2ccsc2n1` [Compound 51], the IC50 was found to be 240 nM. `CC(C)c1ccccc1C1=NC2C=COC2C(NCc2ccc(-c3ccccc3)cc2)=N1` (centres unmarked) [Compound 57]: it took 150 nM to reach half-maximal inhibition (IC50). The same measure, in the same setting: to `CC(C)c1ccccc1C1=NCCC(NCc2ccc(-c3ccccc3)cc2)=N1` [Compound 58] belongs 120 nM.

The assay is the same for the next values; noted with them: USP1/UAF1 inhibition, Table 4.
`Cc1ccc(N2CCC(CNc3nc(-c4ccccc4C(C)C)ncc3C)CC2)cn1` [Compound 75] showed a half-maximal inhibitory concentration (IC50) of 2200 nM.

For `Cc1cnc(-c2ccccc2C(C)C)nc1NCc1cccnc1` [Compound 68], inhibition was half-maximal at 2200 nM (IC50). The same measure, in the same setting: the value for `Cc1cnc(-c2ccccc2C(C)C)nc1NCC1CCN(C2COC2)CC1` [Compound 85] was 15000 nM; that for `Cc1cnc(-c2ccccc2C(C)C)nc1NCc1ccc(-c2cnn[nH]2)cc1` [Compound 82] was 240 nM; that for `Cc1cnc(-c2ccccc2C(C)C)nc1NCC1CCN(c2cccnc2)CC1` [Compound 74] was 48 nM. The same measure, in the same setting: to `Cc1cnc(-c2ccccc2C(C)C)nc1NC(C)(C)c1ccc(-c2cccnc2)cc1` [Compound 90] belongs 190 nM; to `Cc1cnc(-c2ccccc2C(C)C)nc1NCC1CCN(C)CC1` [Compound 71], 30000 nM; to `Cc1cnc(-c2ccccc2C(C)C)nc1NCc1ccc(-c2cccnc2)cc1` [Compound 86], 61 nM. Molecule `Cc1cnc(-c2ccccc2C(C)C)nc1NCc1ccc(-c2ccc(F)nc2)cc1` [Compound 79] came in with an IC50 of 61 nM. On the same count and under the same terms, to `Cc1cnc(-c2ccccc2C(C)C)nc1NCc1cccs1` [Compound 69] belongs 220 nM. For the molecule `Cc1ccc(-c2ccc(CNc3nc(-c4ccccc4C(C)C)ncc3C)cc2)cn1` [Compound 72], the IC50 is 43 nM. Take `Cc1cnc(-c2ccccc2C(C)C)nc1NC1(c2ccc(-c3cccnc3)cc2)CC1` [Compound 89]: the IC50 worked out at 34 nM. On the same count and under the same terms, to `Cc1cnc(-c2ccccc2C(C)C)nc1NCC1CCN(c2cccnc2)C1` (centres unmarked) [Compound 78] belongs 480 nM.

Turning to `Cc1cnc(-c2ccccc2C(C)C)nc1NCC1CC(c2cccnc2)C1` (centres unmarked) [Compound 77], the IC50 stood at 6800 nM. With `Cc1cccc(CNc2nc(-c3ccccc3C(C)C)ncc2C)c1` [Compound 67], the IC50 turned out to be 140 nM. In the case of `Cc1cnc(-c2ccccc2C(C)C)nc1NCc1ccc(-c2cc[nH]n2)cc1` [Compound 88], the half-maximal inhibitory concentration (IC50) came to 150 nM. In turn, `Cc1cccc(C(CO)Nc2nc(-c3ccccc3C(C)C)ncc2C)c1` (centres unmarked) [Compound 70] returned an IC50 of 1100 nM.

Take `Cc1cnc(-c2ccccc2C(C)C)nc1NCc1ccc(C(N)=O)cc1` [Compound 84]: the IC50 amounted to 6800 nM. For the molecule `Cc1cnc(-c2ccccc2C(C)C)nc1NCc1ccc(C2CCCNC2)cc1` (centres unmarked) [Compound 80], inhibition was half-maximal at 7600 nM (IC50). On the same count and under the same terms, the value for `Cc1cnc(-c2ccccc2C(C)C)nc1NCC1CCN(c2cnccn2)CC1` [Compound 76] was 120 nM; that for `Cc1cnc(-c2ccccc2C(C)C)nc1NCc1ccc(-c2ccnc(C(F)(F)F)c2)cc1` [Compound 73] was 380 nM. On the same count and under the same terms, to `Cc1cnc(-c2ccccc2C(C)C)nc1NCc1ccc(-c2nnn[nH]2)cc1` [Compound 83] belongs 7600 nM.

The subject of a further assay is U2OS cells. Kind of assay: Cytotoxicity assay in osteosarcoma U2OS cell line. Format: cell-based, human. Conditions: alone; read-out: EC50 of killing U2OS cells. How it is done: as §1, §2
Cytotoxicity assays were run as described in Example 6 using the cisplatin-sensitive NSCLC H460 cell line and the osteosarcoma U2OS cell line.
On to `N.N.[Cl][Pt][Cl]` [cisplatin, reference compound], for which the EC50 was 629 nM.
